In patent US20260256881A1, “COMPOSITIONS COMPRISING PEDF-DERIVED SHORT PEPTIDES FOR THE TREATMENT OF NEUROTROPHIC KERATITIS DISEASES” (BRIM Biotechnology, Inc., priority 2022, published 2026):

Columns and labels:
Assay type in all cases: in vivo
[1] = system: NK model in Chinchilla rabbits (ophthalmic branch (V1) of trigeminal nerve injured with sodium hydroxide); test: Corneal fluorescein staining (FL score), NK rabbit model; parameters: Fluorescein Staining Score: scale not given here; settings: for Fluorescein Staining Score: X ± SEM, n = 8
Protocol: (§1) The NK model is established in Chinchilla rabbits by using a chemical method to destroy the ophthalmic branch (V1) of trigeminal nerve to induce NK. Briefly, animals were anesthetized. […] The trigeminal nerve was carefully separated from surrounding fasciae, and the ophthalmic nerve (V1) of trigeminal nerve was isolated and injured with sodium hydroxide solution. The V1 injury was performed for unilateral eye in each animal for 5 days prior to treatment.
(§2) A total of 16 animals were assigned randomly into two groups based on corneal ulcer areas at Day 1 prior to the treatments, and the animals received either BRM424 ophthalmic solution (OS containing 0.03% BRM424; TA-1 group) or Vehicle (TA-2 group) in the surgical eye three times daily (TID, eye drops) for 28 days. During the study period, the corneal ulcer areas, corneal fluorescein staining, corneal sensitivity, Schirmer test, and Tear film break-up time (TFBUT) at baseline (Day 0), Day 4, Day 8, Day 15, Day 22, and Day 29 were measured.
Cornea damage may be assessed using corneal fluorescein staining. […] The mean value of corneal fluorescein sodium staining scores at Day 0 was 3.62±0.18 for both the TA-1 and TA-2 groups and fell below 3 (TA-1=1.38±0.18, TA-2=2.36±0.42) by Day 8, indicating a quick onset of action. […] The fluorescein staining score of the TA-1 group reached 1 by Day 29.

[2] = system: NK model in Chinchilla rabbits (ophthalmic branch (V1) of trigeminal nerve injured with sodium hydroxide); test: Corneal ulceration area, slit-lamp with cobalt blue light, NK rabbit model; settings: for Corneal Ulceration Area: X ± SEM, n = 8
Protocol: as §1, §2
Corneal ulceration areas were measured from images taken during slit-lamp examination with cobalt blue light. […] At Day 0, the corneal ulceration areas were 25.98±1.88 mm^2 for the TA-1 group and 27.65±2.66 mm^2 for the TA-2 group, and these areas were reduced to 7.80±1.45 mm^2 and 13.30±2.36 mm^2 by Day 8 for the TA-1 group and TA-2 group, respectively.

[3] = system: NK model in Chinchilla rabbits (ophthalmic branch (V1) of trigeminal nerve injured with sodium hydroxide); test: Tear film break-up time (TFBUT), NK rabbit model; settings: for TFBUT: X ± SEM, n = 8
Protocol: as §1, §2

[4] = system: NK model in Chinchilla rabbits (ophthalmic branch (V1) of trigeminal nerve injured with sodium hydroxide); test: Central corneal sensitivity with Von Frey filaments, NK rabbit model; settings: for Corneal Sensitivity, Contact force (Nylon size) / Corneal Sensitivity, Contact force: X ± SEM, n = 8
Protocol: as §1, §2
Central corneal sensitivity was monitored using Von Frey filaments. Various forces of calibrated Von Frey filaments (0.008-300 g) were applied to the center of the cornea surface of immobilized animal. The mechanical threshold response was determined by assessing treated-eye blinking response evoked by the same calibrated Von Frey filaments twice out of three times. FIG. 4A and FIG. 4B show results for corneal sensitivity tests. Prior to the dose administration (Day 0), there was no corneal reflex in all animals, even when using the coarsest nylon filament (Force 0.008-300 g).

[5] = system: NK model in Chinchilla rabbits (ophthalmic branch (V1) of trigeminal nerve injured with sodium hydroxide); test: Schirmer test for tear production, NK rabbit model; settings: for Schirmer Test: X ± SEM, n = 8
Protocol: as §1, §2
However, the tear volumes of the TA-1 group at Day 29 were about 2-fold higher than that at Day 0.

[6] = Day 0 (baseline, prior to treatment)
[7] = Day 0 (baseline, prior to treatment), listed as TA-1
[8] = Day 4, 0.03% BRM424 ophthalmic solution TID
[9] = Day 8, 0.03% BRM424 ophthalmic solution TID
[10] = Day 15, 0.03% BRM424 ophthalmic solution TID
[11] = Day 22, 0.03% BRM424 ophthalmic solution TID
[12] = Day 29, 0.03% BRM424 ophthalmic solution TID
[13] = after 29 days of topical dose administrations

SLGAEQRTESIIHRALYYDLISSPDIHGT (ophthalmic solution 0.03%; listed as Homo sapiens) [BRM424, PEDF-derived short peptide (PDSP), residues 93-121 of PEDF]
Fluorescein Staining Score [1, 6]: 3.62 ± 0.18
Fluorescein Staining Score [1, 7]: 3.62±0.18
Fluorescein Staining Score ([1]; Day 4, 0.03% BRM424 ophthalmic solution, eye drops TID): 2.00 ± 0.38
Fluorescein Staining Score ([1]; Day 8, 0.03% BRM424 ophthalmic solution, eye drops TID): 1.38 ± 0.18
Fluorescein Staining Score ([1]; Day 8, 0.03% BRM424 ophthalmic solution, eye drops TID, listed as TA-1): 1.38±0.18
Fluorescein staining score, difference between TA-1 and TA-2 (vehicle) groups ([1]; Day 8 and Day 15, P<0.05): Significant difference
Fluorescein Staining Score ([1]; Day 15, 0.03% BRM424 ophthalmic solution, eye drops TID): 1.63 ± 0.36
Fluorescein Staining Score ([1]; Day 22, 0.03% BRM424 ophthalmic solution, eye drops TID): 1.25 ± 0.16
Fluorescein Staining Score ([1]; Day 29, 0.03% BRM424 ophthalmic solution, eye drops TID): 1.00 ± 0.19
Fluorescein Staining Score ([1]; Day 29, 0.03% BRM424 ophthalmic solution, eye drops TID, listed as TA-1): 1
Corneal Ulceration Area [2, 6]: 25.98 ± 1.88 mm^2
Corneal Ulceration Area [2, 7]: 25.98±1.88 mm^2
Corneal Ulceration Area ([2]; Day 4, 0.03% BRM424 ophthalmic solution, eye drops TID, surgical eye): 13.63 ± 2.51 mm^2
Corneal ulceration area reduction compared with vehicle (TA-2) group ([2]; Day 8, Day 15 and Day 29, p<0.05): more than that of TA-2 group
Corneal Ulceration Area ([2]; Day 8, 0.03% BRM424 ophthalmic solution, eye drops TID, surgical eye): 7.80 ± 1.45 mm^2
Corneal Ulceration Area ([2]; Day 8, 0.03% BRM424 ophthalmic solution, eye drops TID, surgical eye, listed as TA-1): 7.80±1.45 mm^2
Corneal Ulceration Area ([2]; Day 15, 0.03% BRM424 ophthalmic solution, eye drops TID, surgical eye): 9.93 ± 2.46 mm^2
Corneal Ulceration Area ([2]; Day 22, 0.03% BRM424 ophthalmic solution, eye drops TID, surgical eye): 7.29 ± 2.11 mm^2
Corneal Ulceration Area ([2]; Day 29, 0.03% BRM424 ophthalmic solution, eye drops TID, surgical eye): 4.81 ± 1.44 mm^2
TFBUT [3, 6]: 5.50 ± 0.33 s
TFBUT [3, 8]: 4.88 ± 0.48 s
TFBUT [3, 9]: 6.75 ± 0.45 s
TFBUT [3, 10]: 5.13 ± 0.55 s
TFBUT [3, 11]: 4.38 ± 0.32 s
TFBUT [3, 12]: 5.38 ± 0.32 s
TFBUT, difference between TA-1 and TA-2 (vehicle) groups [3, 13]: no significant difference
Corneal Sensitivity, Contact force (Nylon size) ([4]; Day 0 (baseline, prior to treatment), Von Frey filament that triggered corneal reflex): 6.65 ± 0.00
Corneal Sensitivity, Contact force ([4]; Day 0 (baseline, prior to treatment), force that triggered corneal reflex): 300.00 ± 0.00 g
Corneal Sensitivity, Contact force [4, 8]: 300.00 ± 0.00 g
Corneal Sensitivity, Contact force (Nylon size) [4, 8]: 6.65 ± 0.00
Corneal Sensitivity, Contact force [4, 9]: 300.00 ± 0.00 g
Corneal Sensitivity, Contact force (Nylon size) [4, 9]: 6.65 ± 0.00
Corneal Sensitivity, Contact force [4, 10]: 235.75 ± 42.18 g
Corneal Sensitivity, Contact force (Nylon size) [4, 10]: 6.41 ± 0.16
Corneal Sensitivity, Contact force [4, 11]: 300.00 ± 0.00 g
Corneal Sensitivity, Contact force (Nylon size) [4, 11]: 6.65 ± 0.00
Corneal Sensitivity, Contact force [4, 12]: 189.75 ± 53.80 g
Corneal Sensitivity, Contact force (Nylon size) [4, 12]: 5.93 ± 0.35
Corneal sensation recovery compared with vehicle (TA-2) group ([4]; after 29 days of treatments): recovered faster with better improvement than the TA-2 group
Schirmer Test [5, 6]: 5.63 ± 0.71 mm
Schirmer Test [5, 8]: 6.00 ± 0.93 mm
Schirmer Test [5, 9]: 5.50 ± 1.02 mm
Schirmer Test [5, 10]: 6.38 ± 0.86 mm
Schirmer Test [5, 11]: 6.50 ± 1.24 mm
Schirmer Test [5, 12]: 10.75 ± 1.59 mm
Tear volumes at Day 29 relative to Day 0 ([5]; Day 29 vs Day 0, same group): about 2 fold
Tear volumes, difference between TA-1 and TA-2 (vehicle) groups [5, 13]: no significant difference
